Data from article PMC13195669, “GPR3 Ligands Discovered through Combined Virtual and Conformational Biosensor-Based Screening” (Journal of the American Chemical Society, 2026).

Target: T1, GPR12 (Homo sapiens, UniProt P47775)
T1 construct: expressed in transfected cells; host or cells: HEK293A, transient
T1 sequence (P47775 1-334): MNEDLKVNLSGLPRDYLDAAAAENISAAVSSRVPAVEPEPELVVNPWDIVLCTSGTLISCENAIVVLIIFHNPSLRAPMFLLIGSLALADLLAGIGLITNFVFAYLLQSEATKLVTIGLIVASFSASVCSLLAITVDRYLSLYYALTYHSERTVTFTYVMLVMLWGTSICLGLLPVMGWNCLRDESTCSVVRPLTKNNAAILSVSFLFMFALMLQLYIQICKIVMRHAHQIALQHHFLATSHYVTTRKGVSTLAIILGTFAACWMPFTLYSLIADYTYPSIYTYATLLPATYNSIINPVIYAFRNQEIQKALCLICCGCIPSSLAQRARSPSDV
Assay: cAMP GloSensor 22F, GPR12-transfected HEK293A cells
Assay type: cell-based
From the text: Next, we used the classical cAMP GloSensor technology to assess the target selectivity profile of 33. […] In addition, we tested the effects of 33 on cAMP changes mediated by agonist-stimulated GPCRs phylogenetically close to GPR3 and coupling to Gs or Gi/o proteins. […]
conditioning and no constraints were applied. The poses were visually inspected and the most favorable one that coincides with the co-solved ligand according to the available structures was chosen.
Plasmids and molecular cloning
The H187-EPAC-FRET sensor7 was kindly provided by K. Jalink (The Netherlands Cancer Institute, Amsterdam, The Nether-lands). The BRET-based cAMP sensor CAMYEL8 was kindly provided by Laura Humphrys (University of Regensburg, Regens-burg, Germany). Plasmids encoding the conformational biosensors α2AAR- and β2AR-HaloTag/Nluc9 and the Gs heterotrimer dissociation sensor10 were previously described. The expression plasmid encoding N-terminally HA-tagged GPR3 (cat. no.
#GPR003TN00) on a pcDNA3.1+ vector was obtained from the cDNA resource center (cdna.org). The Nluc and HaloTag in-serts were amplified with overhanging restriction sites from β2AAR- HaloTag/Nluc and ligated to the full-length C-terminus or inserted into icl3 of GPR3, respectively, to obtain the conformational biosensor GPR3-HaloTag/Nluc. […]

N=c1n(Cc2ccccc2)c2ccccc2n1CC1CC1 [compound 33]
receptor-specific change in cAMP, GPR12: no receptor-specific changes in cAMP levels below 100 μM
